Data set [1] in a line: Optical properties (absorbance, fluorescence, quantum yield) in DMSO. Format: physicochemical. The protocol:
MarvinSketch (ver. 23.11) and InstantJChem (ver. 23.17) calculator plug-ins (ChemAxon, Budapest, Hungary) were used to calculate in silico physicochemical property, such as molecular weight (MW), the partition and distribution coefficient (LogP and LogD at pH 7.4), surface molecular charge, hydrophobicity, the hydrogen bond acceptors/donors (HBA/HBD), the acid dissociation constant (pKa), the topological polar surface area (TPSA), and BBB score. The BBB score is determined by 5 key physicochemical descriptors, including the number of aromatic rings, the number of heavy atoms, MWHBN (a parameter derived from MW and the number of HBA/HBD), TPSA, and pKa. The final score is computed using stepwise methods for descriptors with discrete values and polynomial weight functions for descriptors with continuous ranges (ChemAxon). The absorbance and fluorescence emission spectra of ALS04 and ALS05 at varying concentrations were measured in dimethyl sulfoxide (DMSO) using HR2000 absorbance spectrometers (200 to 1,100 nm) and USB2000FL fluorescence spectrometers (350 to 1,000 nm) from Ocean Optics (Dunedin, FL). Fluorescence emission spectra were collected under NIR excitation using a 760-nm laser pointer (Opcom Inc., Xiamen, China). […] The fluorescence emission spectrum was integrated and plotted as a function of absorbance at 755 nm, and a linear fit was applied to determine the slope between fluorescence intensity and absorbance. […] A small, accurately weighed amount of each fluorophore was added to a minimal volume of solvents, and the saturated solution was then vortexed and sonicated for 5 min to ensure complete dissolution of the solids. Following this, the solution was centrifuged at 1,500g for 10 min, and the absorbance of the supernatant was measured. The solubility (g/l) was calculated by multiplying the maximum absorbance-derived concentration by the MW of each fluorophore.

A short description of data set [2]: Solubility in 5% BSA in saline. Format: physicochemical. The note with it: 5% bovine serum albumin in saline, plasma or biological fluid, thermodynamic from solid. The protocol:
MarvinSketch (ver. 23.11) and InstantJChem (ver. 23.17) calculator plug-ins (ChemAxon, Budapest, Hungary) were used to calculate in silico physicochemical property, such as molecular weight (MW), the partition and distribution coefficient (LogP and LogD at pH 7.4), surface molecular charge, hydrophobicity, the hydrogen bond acceptors/donors (HBA/HBD), the acid dissociation constant (pKa), the topological polar surface area (TPSA), and BBB score. The BBB score is determined by 5 key physicochemical descriptors, including the number of aromatic rings, the number of heavy atoms, MWHBN (a parameter derived from MW and the number of HBA/HBD), TPSA, and pKa. […] The absorbance and fluorescence emission spectra of ALS04 and ALS05 at varying concentrations were measured in dimethyl sulfoxide (DMSO) using HR2000 absorbance spectrometers (200 to 1,100 nm) and USB2000FL fluorescence spectrometers (350 to 1,000 nm) from Ocean Optics (Dunedin, FL). Fluorescence emission spectra were collected under NIR excitation using a 760-nm laser pointer (Opcom Inc., Xiamen, China). […] The fluorescence emission spectrum was integrated and plotted as a function of absorbance at 755 nm, and a linear fit was applied to determine the slope between fluorescence intensity and absorbance. […] Following this, the solution was centrifuged at 1,500g for 10 min, and the absorbance of the supernatant was measured. […]

The nature of data set [3]: Photostability under continuous 760-nm irradiation in 5% BSA. In kind it is physicochemical. The note with it: 5% BSA solution, NIR imaging conditions. On the procedure:
To investigate the photostability of ALS04 and ALS05, 10 mM stock solutions were diluted to obtain working solutions, with concentrations of 100, 50, 20, and 10 μM in 5% BSA solution, which were then dispensed into a black 96-well plate. Subsequently, the 200-μl working solutions were exposed to continuous irradiation using a 760-nm laser diode at 4 mW/cm^2, with white light (400 to 650 nm) at 40,000 lux, and imaged for 240 min. The fluorescence (%) was calculated by analyzing the measured values with ImageJ v1.52 (National Institutes of Health, Bethesda, MD, USA) using images captured at each time point. The data, presented as mean ± SD, assessed stability by measuring regions of interest (ROIs) and comparing fluorescence intensity against the initial fluorescence signal.

In data set [4] the test system is SH-SY5Y cells. In words: Cellular uptake inhibition (BSP pretreatment or 4 °C). In kind it is cell-based, human. On the procedure:
SH-SY5Y cells were seeded on a 24-well plate (Corning Costar, no. 3524) and incubated at 37 °C for 48 h. To determine the role of membrane transporter in ALS04 retention, SH-SY5Y cells were pretreated with 250 μM sulfobromophthalein disodium (BSP; MedChemExpress, HY-D0217) at 37 °C for 20 min. Cells were then incubated with 1 μM of ALS04 and NucBlue (Invitrogen, Hoechst 33342, no. R37605) for 20 min at 37 °C. To evaluate the contribution of diffusion across the plasma membrane, cells were also incubated at 4 °C for 30 min, followed by incubation with 1 μM ALS04 at 4 °C for 20 min. After washing, the cells were imaged using BioTek Cytation 5. The fluorescence intensity of each cell was determined using ImageJ.

The subject of data set [5] is SH-SY5Y cells. Kind of data set: In vitro model of mitochondrial dysfunction (MPP+). Format: cell-based, human. The note with it: MPP+ 30, 125, 500 μM for 24 h, then 1 μM for 30 min. On the procedure:
SH-SY5Y cells were seeded into 6-well plates (Corning Costar, no. 3516) at a density of 12,000 cells/well overnight. Cells were maintained at 37 °C in a humidified atmosphere of 5% CO2. To model mitochondrial dysfunction, undifferentiated and differentiated SH-SY5Y cells were incubated with 30, 125, and 500 μM 1-methyl-4-phenylpyridinium (MPP^+; Neurotoxin agent, Cayman, no. 16958) in the medium for 24 h. The control groups for undifferentiated and differentiated SH-SY5Y cells were treated with the same medium without MPP^+. The cells were then washed with 10% FBS/HBSS. After washing, cells were incubated with 1 μM of ALS04, MitoTracker Deep Red, and NucBlue for 30 min. The cells were imaged using BioTek Cytation 5. The fluorescent intensity of each cell was measured using ImageJ.

The nature of data set [6]: Pharmacokinetics after single intravenous injection (2-compartment model). In kind it is in vivo, CD-1 mice. Particulars: 25 nmol i.v. in 2.5% PEG400 and 5% BSA in saline; for half-life: 25 nmol. On the procedure:
Six-week-old CD-1 mice were used to quantify the blood clearance rate and urinary excretion. Mice were injected with 25 nmol of ALS04 or ALS05 in saline containing 2.5% PEG400 (polyethylene glycol, molecular weight 400) and 5% BSA via intravenous injection under isoflurane anesthesia, and blood was collected in heparinized capillary tubes (Fisher Scientific, Pittsburgh, PA) by tail nick before injection and at 1, 3, 5, 10, 30, 60, 120, 180, and 240 min post-injection and then stored in an icebox to prevent clotting. The supernatants of collected blood were filled into capillary microtubes (Fisher Scientific) after centrifugation. Mice were euthanized with CO2 inhalation to image organs and collect urine from the bladder 4 h post-injection. Collected urine samples were also placed into capillary microtubes. The fluorescence intensities of the microtubes were measured by NIR imaging along with a set of standard ALS04 or ALS05 samples of known concentrations to analyze the pharmacokinetics. Pharmacokinetic analysis was performed using the 2-compartment model (or biexponential decay) to estimate distribution (t1/2α) and elimination (t1/2β) blood half-life, the volume of distribution, and clearance. Results were presented as a biexponential decay curve.

Read-outs that look alike come from different tables or passages of the source.

The term solubility denotes the concentration that dissolves in the medium under given conditions. A higher solubility goes with much dissolved substance. A word on the AUC: it is the area under the concentration-time curve, a measure of exposure. As a reminder, the clearance is a measure of how efficiently the substance is removed, as volume per time. For orientation: Vd means a proportionality between amount in the body and measured concentration, not a real space.

As to `CN1/C(=C/C2=CC3=C/C(=C/c4sc5ccccc5[n+]4C)CCC3CC2)Sc2ccccc21` (stereo not drawn) [ALS04], in data set [1], the “Ext. coeff. (molar absorptivity)” value is listed as 169,600 M^-1cm^-1, the “Max. Abs (excitation maximum)” value is on record as 751 nm and the “Max. Fl (emission maximum)” value was determined as 774 nm. Moreover, in data set [1] (ICG as reference), the “QY (quantum yield)” value is reported as 6.0%. The same compound gave a solubility at 5 min in data set [2] of 2.53 mg/mL. In data set [3] (10 μM, 240 min), the “Photostability (retained fluorescence) at 10 μM” value was found to be 60%. The “Photostability (retained fluorescence)” value in data set [3] (up to 240 min) is “over 90%”. For the same compound, the “Fluorescence signal (cellular uptake) after OATP inhibitor BSP” value in the data set with SH-SY5Y cells [4] (250 μM BSP pretreatment 20 min, then 1 μM for 20 min, ****P ≤ 0.0001) was “significant reduction”. In addition, the “Cellular uptake at 4 °C” value in the data set with SH-SY5Y cells [4] (cells at 4 °C 30 min, then 1 μM at 4 °C for 20 min) is given as “significantly reduced”. Further, the “Colocalization with mitochondria after MPP+ treatment” value in the data set on SH-SY5Y cells [5] is given as “dose-dependent reduction”. The AUC in data set [6] was 775.6 nmol·min/mL. The half-life in data set [6] (CD-1, mouse, plasma, iv, read-out: t1/2α (distribution blood half-life)) came to 1.82 min. Moreover, the half-life in data set [6] (CD-1, mouse, plasma, iv, read-out: t1/2β (elimination blood half-life)) amounted to 79.9 min. The clearance in data set [6] (CD-1, mouse, plasma, iv, read-out: Cl (clearance)) was 0.067 mL/min. Also, in data set [6] (CD-1, mouse, plasma, iv, read-out: Vd (volume of distribution)), the Vd amounted to 0.00296 L.

The record behind these values is paper PMC11912748, “Image-Guided Monitoring of Mitochondria and Blood–Brain Barrier Dysfunction in Amyotrophic Lateral Sclerosis Mice” (Biomaterials Research, 2025).
